From ChEMBL document CHEMBL5247654 (J Med Chem, 2023)
The source made the active and inactive calls. No cut-off for these calls is given here.

How the values were obtained:
[1] = biological target: T1, Glycogen synthase kinase-3 beta (Homo sapiens, UniProt P49841); experiment: Inhibition of human C-terminal his tagged GSK3beta (26 to 383 residues) transfected in HEK293T cells assessed as inhibition of cyclin D1 phosphorylation at 10 uM incubated for 3 hrs by Western blot analysis; assay type: cell-based
Target sequence in this assay (P49841 whole entry, looked up, the tested form may be a part): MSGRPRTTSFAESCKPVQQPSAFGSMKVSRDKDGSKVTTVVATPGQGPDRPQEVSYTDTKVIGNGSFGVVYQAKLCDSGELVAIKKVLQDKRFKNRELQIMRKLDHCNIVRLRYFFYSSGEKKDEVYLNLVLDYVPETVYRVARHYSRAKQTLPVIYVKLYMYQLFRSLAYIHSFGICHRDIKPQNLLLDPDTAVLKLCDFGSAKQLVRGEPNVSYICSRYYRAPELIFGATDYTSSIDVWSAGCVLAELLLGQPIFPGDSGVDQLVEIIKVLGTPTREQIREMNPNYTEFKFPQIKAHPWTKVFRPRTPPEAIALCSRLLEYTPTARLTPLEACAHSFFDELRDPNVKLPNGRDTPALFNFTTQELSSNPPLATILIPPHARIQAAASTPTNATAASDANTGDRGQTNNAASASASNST

[2] = biological target: T2, Dual specificity tyrosine-phosphorylation-regulated kinase 1A (Homo sapiens, UniProt Q13627); experiment: Inhibition of human C-terminal his tagged DYRK1A (26 to 490 residues) transfected in HEK293T cells assessed as inhibition of cyclin D1 phosphorylation at 10 uM incubated for 3 hrs by Western blot analysis; assay type: cell-based
[3] = biological target: T1, Glycogen synthase kinase-3 beta; experiment: Inhibition of human C-terminal his tagged GSK3beta (26 to 383 residues) expressed in Escherichia coli using GYSI(YRRAAVPPSPSLSRHSSPHQ(pS)EDEEE) as peptide substrate incubated for 1 hr in presence of ATP by cook activity assay
Target sequence in this assay (P49841 whole entry, the tested form may be a part): as the sequence (P49841 whole entry, looked up, the tested form may be a part) above

[4] = biological target: T1, Glycogen synthase kinase-3 beta; experiment: Stabilization of human C-terminal his tagged GSK3beta (26 to 383 residues) expressed in Escherichia coli assessed as change in melting temperature at 10 uM by SYPRO orange dye based thermal shift assay
Target sequence in this assay (P49841 whole entry, looked up, the tested form may be a part): as the sequence (P49841 whole entry, looked up, the tested form may be a part) above

[5] = biological target: T1, Glycogen synthase kinase-3 beta; settings: dose 500.0 nM
Target sequence in this assay (P49841 whole entry, looked up, the tested form may be a part): as the sequence (P49841 whole entry, looked up, the tested form may be a part) above

[6] = biological target: T1, Glycogen synthase kinase-3 beta; experiment: Inhibition human C-terminal his tagged m-Cherry GSK3beta (26 to 383 residues) in HEK293T cells assessed as reversal of ionomycin stimulated NFAT cellular localization at 5 uM incubated for 3 hrs followed by ionomycin stimulation for 1 hr by Hoechst 33258 staining based fluorescence microscopic analysis; assay type: cell-based; settings: time 4.0 hrs
Target sequence in this assay (P49841 whole entry, looked up, the tested form may be a part): as the sequence (P49841 whole entry, looked up, the tested form may be a part) above

[7] = biological target: T2, Dual specificity tyrosine-phosphorylation-regulated kinase 1A; experiment: Binding affinity to human C-terminal his tagged DYRK1A (26 to 490 residues) expressed in Escherichia coli at 100 uM by radiometric analysis
[8] = biological target: T2, Dual specificity tyrosine-phosphorylation-regulated kinase 1A; experiment: Inhibition of human C-terminal his tagged DYRK1A (26 to 490 residues) expressed in Escherichia coli using DYRKtide (RRRFRPASPLRGPPK) as peptide substrate incubated for 1 hr in presence of ATP by cook activity assay

Row | SMILES | inhibition [1] | inhibition [2] | IC50 [3] | Tm [4] | inhibition [5] [%] | inhibition [6] | Activity [7] | IC50 [8]
1 | COc1ccc2c(c1)[nH]c1c(C)nccc12 [HARMINE] | Active | Active | Not Active | inactive | – | – | – | –
2 | O=C(O)c1ccc2c(c1)nc(Nc1cccc(Cl)c1)c1ccncc12 | 100% | 100% | – | – | 50 | Active | – | –
3 | O=C1Cc2c([nH]c3ccc(Br)cc23)-c2ncccc2N1 [AZAKENPAULLONE] | Active | Active | – | – | – | Active | inactive | Not Active
